Data: the supplement of paper PMC10307832

Key:
Test in all cases: relative viability (nuclei count vs DMSO), 5 days (fraction); higher = more cells survive
[1] = compound: CC1=C(C(=O)N2C=CSC2=N1)CCN3CCC(=C(C4=CC=CC=C4)C5=CC=C(C=C5)F)CC3 + O=C(CCCCCCC(=O)Nc1ccccc1)NO [Vorinostat] (partner 1 µM)
Method in brief: (§1)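 Relative viability was taken as the ratio of nuclei in treated wells to nuclei in vehicle wells. Lung cancer cell lines in 1536-well plates received compounds by pin tool one day after seeding, either one drug alone or a fixed anchor-drug dose plus five library-drug doses (not always all listed) in √10 steps. Nuclei were counted on 4× images after 5 days of treatment, and values are medians of duplicate plates.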

[2] = compound: CC1=C(C(=O)N2C=CSC2=N1)CCN3CCC(=C(C4=CC=CC=C4)C5=CC=C(C=C5)F)CC3 + C[C@]1(O)C[C@@H](c2nc(-c3ccc4ccc(-c5ccccc5)nc4c3)c3c(N)nccn32)C1 [Linsitinib] (partner 1 µM)
Method in brief: as §1

[3] = compound: CC1=C(C(=O)N2C=CSC2=N1)CCN3CCC(=C(C4=CC=CC=C4)C5=CC=C(C=C5)F)CC3 + CC1(C)CCC(c2ccc(Cl)cc2)=C(CN2CCN(c3ccc(C(=O)NS(=O)(=O)c4ccc(N[C@H](CCN5CCOCC5)CSc5ccccc5)c(S(=O)(=O)C(F)(F)F)c4)cc3)CC2)C1 [Navitoclax] (partner 0.5 µM)
Method in brief: as §1

[4] = compound: CC1=C(C(=O)N2C=CSC2=N1)CCN3CCC(=C(C4=CC=CC=C4)C5=CC=C(C=C5)F)CC3 + Cc1nc(NC(=O)N2CCC[C@H]2C(N)=O)sc1-c1ccnc(C(C)(C)C(F)(F)F)c1 [Alpelisib] (partner 2 µM)
Method in brief: as §1

Row | Cell Line | relative viability ([1]; first compound 0.08 µM) | relative viability ([1]; first compound 0.253 µM) | relative viability ([1]; first compound 0.8 µM) | relative viability ([1]; first compound 2.53 µM) | relative viability ([1]; first compound 8 µM) | relative viability ([2]; first compound 0.08 µM) | relative viability ([2]; first compound 0.253 µM) | relative viability ([2]; first compound 0.8 µM) | relative viability ([2]; first compound 2.53 µM) | relative viability ([2]; first compound 8 µM) | relative viability ([3]; first compound 0.08 µM) | relative viability ([3]; first compound 0.253 µM) | relative viability ([3]; first compound 0.8 µM) | relative viability ([3]; first compound 2.53 µM) | relative viability ([3]; first compound 8 µM) | relative viability ([4]; first compound 0.08 µM) | relative viability ([4]; first compound 0.253 µM) | relative viability ([4]; first compound 0.8 µM) | relative viability ([4]; first compound 2.53 µM) | relative viability ([4]; first compound 8 µM)
1 | A-427 | 0.878 | 0.824 | 0.86 | 0.91 | 0.748 | 1.06 | 1.05 | 1.13 | 1.17 | 0.959 | 1.08 | 0.877 | 0.915 | 0.973 | 0.948 | 1.15 | 1.11 | 1.05 | 1.1 | 1.08
2 | COR-L23 | 0.438 | 0.365 | 0.46 | 0.421 | 0.405 | 0.84 | 0.915 | 1.04 | 1.13 | 0.505 | 0.895 | 1.06 | 1.04 | 1.47 | 0.525 | 0.755 | 1.05 | 0.818 | 0.877 | 0.667
3 | NCI-H838 | 0.688 | 0.692 | 0.738 | 0.8 | 0.573 | 1.02 | 1.02 | 1.02 | 1.31 | 0.809 | 0.986 | 1.08 | 1.15 | 1.62 | 0.494 | 0.964 | 0.979 | 1.02 | 1.32 | 0.773
4 | NCI-H322M | 0.898 | 0.845 | 0.862 | 0.953 | 0.943 | 0.808 | 0.924 | 0.926 | 1.01 | 0.702 | 0.987 | 1.29 | 1.34 | 1.36 | 0.889 | 0.769 | 0.85 | 0.897 | 0.804 | 0.8
5 | EKVX | 0.577 | 0.723 | 0.651 | 0.63 | 0.561 | 0.999 | 1.05 | 1.09 | 0.951 | 0.839 | 0.718 | 0.775 | 0.961 | 0.848 | 0.741 | 0.719 | 0.868 | 1.05 | 1.14 | 0.652
6 | HOP-62 | 0.522 | 0.628 | 0.552 | 0.468 | 0.323 | 1.24 | 0.948 | 1 | 1.06 | 0.49 | 0.516 | 0.989 | 1.23 | 0.796 | 0.466 | 0.974 | 0.852 | 0.971 | 0.945 | 0.56
7 | PC-14 | 0.677 | 0.901 | 0.866 | 0.762 | 0.623 | 0.904 | 1.07 | 1.02 | 0.947 | 0.734 | 0.655 | 0.974 | 1.05 | 1.09 | 0.449 | 0.738 | 1.04 | 0.955 | 0.979 | 0.624
8 | NCI-H2347 | 0.538 | 0.603 | 0.573 | 0.579 | 0.453 | 0.921 | 0.958 | 0.977 | 0.932 | 0.804 | 0.313 | 0.739 | 0.89 | 0.663 | 0.552 | 0.942 | 0.855 | 1.18 | 1.02 | 0.791
9 | NCI-H727 | 1.08 | 1.3 | 1.16 | 1.13 | 1.07 | 0.194 | 0.227 | 0.298 | 0.437 | 0.295 | 0.346 | 0.481 | 0.444 | 0.48 | 0.383 | 0.507 | 0.509 | 0.493 | 0.738 | 0.425
10 | EMC-BAC-2 | 0.416 |  | 0.343 | 0.398 | 0.377 | 0.8 | 0.804 | 0.882 | 0.825 | 0.627 | 0.906 | 0.95 | 1.28 | 1.16 | 0.707 | 0.639 | 0.673 | 0.806 | 0.824 | 0.588
11 | NCI-H1993 | 0.87 | 0.715 | 0.885 | 0.92 | 0.756 | 0.763 |  | 0.67 | 0.713 | 0.89 | 0.954 |  | 1.12 | 1.05 | 0.917 | 0.683 |  | 0.694 | 0.699 | 0.669
12 | PC-3 [JPC-3] | 0.746 |  | 0.748 | 0.879 | 0.666 | 0.884 | 0.914 | 1.01 | 1.04 | 0.893 | 0.789 | 0.657 | 0.845 | 0.921 | 0.803 | 0.959 | 1.1 | 1.07 | 1.08 | 0.899
13 | HARA | 0.477 | 0.545 | 0.513 | 0.665 | 0.372 | 0.956 | 1.09 | 1.08 | 0.917 | 0.54 | 1.18 | 1.33 | 1.16 | 1.23 | 0.537 | 0.932 | 0.668 | 1.05 | 0.77 | 0.623
14 | NCI-H2023 | 0.657 | 0.56 | 0.648 | 0.695 | 0.399 | 0.63 | 0.598 | 0.718 | 0.723 | 0.582 | 0.99 | 0.894 | 0.997 | 1.08 | 1.09 | 0.579 | 0.587 | 0.549 | 0.697 | 0.584
15 | NCI-H2126 | 0.794 | 0.852 | 0.784 | 0.802 | 0.631 | 0.712 | 0.729 | 0.801 | 0.797 | 0.716 | 0.835 | 0.839 | 0.846 | 0.971 | 0.799 | 0.764 | 0.766 | 0.742 | 0.816 | 0.785
16 | RERF-LC-KJ | 0.617 | 0.658 | 0.793 | 0.716 | 0.48 | 0.879 | 0.933 | 0.883 | 0.832 | 0.672 | 0.933 | 0.769 | 0.806 | 1 | 0.681 | 0.743 | 0.844 | 0.8 | 0.758 | 0.633
